# Read-outs that look alike come from different tables or passages of the source.
# Experiments:
# [1] = system: Bacillus subtilis 168; test: Bacterial growth in microscale cultivation, B. subtilis; assay type: cell-based; settings: for activity at 8 µM / activity at 80 µM / activity at 800 µM / activity at 160 µM / Lag Phase / activity at 4 µM / activity at 40 µM / activity at 400 µM: relative to control
# Description: (§1) The following bacteria were cultivated in the presence of trans-chalcone derived inhibitors: Corynebacterium glutamicum ATCC13032[43], Escherichia coli K-12 MG1655[44], Pseudomonas putida KT2440[45], and Bacillus subtilis 168[46]. The growth of these bacteria was monitored in flower-well plates shaken at 1200 rpm as backscatter at 620 nm (gain 20) using a BioLector® microscale cultivation system (m2p labs, Baesweiler, Germany). For further experimental details please refer to the Supplementary Information.
# (§2) medium or the appropriate minimal medium and shaken at 140 rpm overnight. For inoculation of
# (§3) the main culture, cells equivalent to an optical density at 600 nm of 0.5 (C. glutamicum, E. coli,
# (§4) and P. putida) or 0.25 (B. subtilis) in 800 µL medium were washed and resuspended in fresh
# (§5) media. Inhibitor substances were dissolved in DMSO and added to the media to a final
# (§6) Since the least polar trans-chalcone and 2’-hydroxychalcone precipitated in the growth media at
# (§7) the highest concentrations, the maximal concentration of these compounds was reduced to 400
# (§8) µM and 100 µM, respectively. The final backscatter at 620 nm, the growth rate (h-1), and the
# (§9) duration of the lag phase of all cultures were determined in a BioLector microscale cultivation
# (§10) system in comparison to negative controls supplemented with the solvent DMSO. A longer lag
# [2] = molecular target: T1, F. trinervia PEPC (Flaveria trinervia, UniProt P30694); test: biochemical; assay type: biochemical; settings: for Selectivity C4/C3: C4 PEPC over C3 isoform; for IC50: C4 PEPC
# T1 construct: the full-length ppcA gene of PEPC from F. trinervia (EMBL-Bank X61304); made in house; host or cells: Escherichia coli BL21(DE3)
# T1 sequence (P30694 1-966): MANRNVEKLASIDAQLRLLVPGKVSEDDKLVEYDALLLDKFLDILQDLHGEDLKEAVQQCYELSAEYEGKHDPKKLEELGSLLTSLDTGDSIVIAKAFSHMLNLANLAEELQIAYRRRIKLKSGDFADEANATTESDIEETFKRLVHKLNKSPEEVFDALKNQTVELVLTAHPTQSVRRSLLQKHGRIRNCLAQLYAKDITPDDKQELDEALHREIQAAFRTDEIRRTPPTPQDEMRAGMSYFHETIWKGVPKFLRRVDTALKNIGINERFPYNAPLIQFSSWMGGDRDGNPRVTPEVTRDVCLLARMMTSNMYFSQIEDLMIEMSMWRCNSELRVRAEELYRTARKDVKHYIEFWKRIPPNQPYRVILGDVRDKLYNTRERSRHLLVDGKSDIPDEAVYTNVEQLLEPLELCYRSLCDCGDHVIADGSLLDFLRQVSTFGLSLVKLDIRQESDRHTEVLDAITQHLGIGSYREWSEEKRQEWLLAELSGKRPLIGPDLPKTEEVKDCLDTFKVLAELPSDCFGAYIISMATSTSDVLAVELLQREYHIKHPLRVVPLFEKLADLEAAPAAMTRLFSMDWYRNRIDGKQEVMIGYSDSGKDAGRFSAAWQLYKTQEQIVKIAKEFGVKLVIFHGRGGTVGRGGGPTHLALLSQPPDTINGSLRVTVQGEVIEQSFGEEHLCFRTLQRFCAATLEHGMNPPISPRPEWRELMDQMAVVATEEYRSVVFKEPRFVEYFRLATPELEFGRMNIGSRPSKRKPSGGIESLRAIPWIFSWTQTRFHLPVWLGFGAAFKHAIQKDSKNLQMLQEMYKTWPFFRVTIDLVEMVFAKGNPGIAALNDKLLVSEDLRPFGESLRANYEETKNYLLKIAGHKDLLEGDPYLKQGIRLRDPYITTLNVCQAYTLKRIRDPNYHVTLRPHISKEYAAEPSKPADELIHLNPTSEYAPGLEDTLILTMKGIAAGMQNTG
# Description: The IC50 values of small molecule compounds on F. pringlei and F. trinervia PEPCs were determined using PEPC coupled spectrophotometric assay. The amount of NADH oxidized by NADH-malate dehydrogenase was measured by the decrease in absorbance at 340 nm in a Beckman DU-800 spectrophotometer, thus the value is in proportion to the corresponding substrate conversion of the enzyme. […] The reactions were started by adding two folds of the Km value of PEP for each enzyme. The data were analyzed using GraFit (Erithacus Software, UK).
# [3] = system: Pseudomonas putida KT2440; test: Bacterial growth in microscale cultivation, P. putida; assay type: cell-based; settings: relative to control; for activity at 8 µM / activity at 80 µM / activity at 400 µM / activity at 4 µM / activity at 40 µM: Pseudomonas putida
# Description: as §1, §2, §3, §4, §5, §6, §7, §8, §9, §10
# [4] = KT2440, complex medium, 400 µM, read-out: Final Backscatter
# [5] = KT2440, complex medium, 400 µM, read-out: Growth rate
# [6] = KT2440, minimal medium, 400 µM, read-out: Final Backscatter
# [7] = KT2440, minimal medium, 400 µM, read-out: Growth rate
compound,measurement,setting,value
"O=C(/C=C/c1ccccc1)c1ccccc1 [Compound 1, trans-Chalcone]",activity at 8 µM,"[1]; Bacillus subtilis, 168, complex medium, 8 µM, read-out: Final Backscatter",95.4%
same,activity at 8 µM,"[1]; Bacillus subtilis, 168, complex medium, 8 µM, read-out: Growth rate",115%
same,activity at 80 µM,"[1]; Bacillus subtilis, 168, complex medium, 80 µM, read-out: Final Backscatter",99%
same,activity at 80 µM,"[1]; Bacillus subtilis, 168, complex medium, 80 µM, read-out: Growth rate",119%
same,activity at 800 µM,"[1]; Bacillus subtilis, 168, complex medium, 800 µM, read-out: Final Backscatter",103%
same,activity at 800 µM,"[1]; Bacillus subtilis, 168, complex medium, 800 µM, read-out: Growth rate",130%
same,activity at 8 µM,"[1]; Bacillus subtilis, 168, minimal medium, 8 µM, read-out: Final Backscatter",89.6%
same,activity at 8 µM,"[1]; Bacillus subtilis, 168, minimal medium, 8 µM, read-out: Growth rate",118%
same,activity at 80 µM,"[1]; Bacillus subtilis, 168, minimal medium, 80 µM, read-out: Final Backscatter",88.8%
same,activity at 80 µM,"[1]; Bacillus subtilis, 168, minimal medium, 80 µM, read-out: Growth rate",105%
same,activity at 160 µM,"[1]; Bacillus subtilis, 168, minimal medium, 160 µM, read-out: Final Backscatter",89.5%
same,activity at 160 µM,"[1]; Bacillus subtilis, 168, minimal medium, 160 µM, read-out: Growth rate",97.3%
same,activity at 800 µM,"[1]; Bacillus subtilis, 168, minimal medium, 800 µM, read-out: Final Backscatter",83.6%
same,activity at 800 µM,"[1]; Bacillus subtilis, 168, minimal medium, 800 µM, read-out: Growth rate",93.3%
same,Influence on bacterial growth,"[1]; Minimal medium, highest concentration tested (10× IC50) if not stated otherwise",lag↑ (2× IC50)
same,Lag Phase,"[1]; complex medium, 8 µM","103,5%"
same,Lag Phase,"[1]; complex medium, 80 µM","103,5%"
same,Lag Phase,"[1]; complex medium, 800 µM","101,2%"
same,Lag Phase,"[1]; minimal medium, 8 µM","111,6%"
same,Lag Phase,"[1]; minimal medium, 80 µM","109,9%"
same,Lag Phase,"[1]; minimal medium, 160 µM","110,6%"
same,Lag Phase,"[1]; minimal medium, 800 µM","121,3%"
same,Selectivity C4/C3,[2],1.5 fold
same,IC50,[2]; IC50 F. trinervia PEPC,77.5 ± 2.7 µM
same,activity at 8 µM,"[3]; KT2440, complex medium, 8 µM, read-out: Final Backscatter",95.3%
same,activity at 8 µM,"[3]; KT2440, complex medium, 8 µM, read-out: Growth rate",98.4%
same,activity at 80 µM,"[3]; KT2440, complex medium, 80 µM, read-out: Final Backscatter",96.7%
same,activity at 80 µM,"[3]; KT2440, complex medium, 80 µM, read-out: Growth rate",100%
same,activity at 400 µM,[3]; [4],97.3%
same,activity at 400 µM,[3]; [5],103%
same,activity at 8 µM,"[3]; KT2440, minimal medium, 8 µM, read-out: Final Backscatter",94.4%
same,activity at 8 µM,"[3]; KT2440, minimal medium, 8 µM, read-out: Growth rate",112%
same,activity at 80 µM,"[3]; KT2440, minimal medium, 80 µM, read-out: Final Backscatter",94.2%
same,activity at 80 µM,"[3]; KT2440, minimal medium, 80 µM, read-out: Growth rate",113%
same,activity at 400 µM,[3]; [6],100%
same,activity at 400 µM,[3]; [7],119%
same,Lag Phase,"[3]; complex medium, 8 µM","100,6%"
same,Lag Phase,"[3]; complex medium, 80 µM","101,8%"
same,Lag Phase,"[3]; complex medium, 400 µM","103,0%"
same,Lag Phase,"[3]; minimal medium, 8 µM","98,9%"
same,Lag Phase,"[3]; minimal medium, 80 µM","99,3%"
same,Lag Phase,"[3]; minimal medium, 400 µM","98,1%"
"O=C(/C=C/c1ccccc1O)c1ccc(O)cc1O [Compound 7, 2′,4′,2-Trihydroxychalcone]",activity at 4 µM,"[1]; Bacillus subtilis, 168, complex medium, 4 µM, read-out: Final Backscatter",99.9%
same,activity at 4 µM,"[1]; Bacillus subtilis, 168, complex medium, 4 µM, read-out: Growth rate",95.9%
same,activity at 40 µM,"[1]; Bacillus subtilis, 168, complex medium, 40 µM, read-out: Final Backscatter",102%
same,activity at 40 µM,"[1]; Bacillus subtilis, 168, complex medium, 40 µM, read-out: Growth rate",104%
same,activity at 400 µM,"[1]; Bacillus subtilis, 168, complex medium, 400 µM, read-out: Final Backscatter",98.3%
same,activity at 400 µM,"[1]; Bacillus subtilis, 168, complex medium, 400 µM, read-out: Growth rate",92.5%
same,activity at 4 µM,"[1]; Bacillus subtilis, 168, minimal medium, 4 µM, read-out: Final Backscatter",98.8%
same,activity at 4 µM,"[1]; Bacillus subtilis, 168, minimal medium, 4 µM, read-out: Growth rate",107%
same,activity at 40 µM,"[1]; Bacillus subtilis, 168, minimal medium, 40 µM, read-out: Final Backscatter",98.5%
same,activity at 40 µM,"[1]; Bacillus subtilis, 168, minimal medium, 40 µM, read-out: Growth rate",107%
same,activity at 400 µM,"[1]; Bacillus subtilis, 168, minimal medium, 400 µM, read-out: Final Backscatter",95.3%
same,activity at 400 µM,"[1]; Bacillus subtilis, 168, minimal medium, 400 µM, read-out: Growth rate",70.4%
same,Lag Phase,"[1]; complex medium, 4 µM","100,0%"
same,Lag Phase,"[1]; complex medium, 40 µM","107,1%"
same,Lag Phase,"[1]; complex medium, 400 µM","185,2%"
same,Lag Phase,"[1]; minimal medium, 4 µM","104,9%"
same,Lag Phase,"[1]; minimal medium, 40 µM","106,1%"
same,Lag Phase,"[1]; minimal medium, 400 µM","143,2%"
same,Selectivity C4/C3,[2],2.3 fold
same,IC50,[2]; read-out: IC50 F. trinervia PEPC,28.2 ± 2.2 µM
same,activity at 4 µM,"[3]; KT2440, complex medium, 4 µM, read-out: Final Backscatter",99.1%
same,activity at 4 µM,"[3]; KT2440, complex medium, 4 µM, read-out: Growth rate",100%
same,activity at 40 µM,"[3]; KT2440, complex medium, 40 µM, read-out: Final Backscatter",95.3%
same,activity at 40 µM,"[3]; KT2440, complex medium, 40 µM, read-out: Growth rate",101%
same,activity at 400 µM,[3]; [4],99.9%
same,activity at 400 µM,[3]; [5],99.6%
same,activity at 4 µM,"[3]; KT2440, minimal medium, 4 µM, read-out: Final Backscatter",101%
same,activity at 4 µM,"[3]; KT2440, minimal medium, 4 µM, read-out: Growth rate",98.3%
same,activity at 40 µM,"[3]; KT2440, minimal medium, 40 µM, read-out: Final Backscatter",100%
same,activity at 40 µM,"[3]; KT2440, minimal medium, 40 µM, read-out: Growth rate",94.3%
same,activity at 400 µM,[3]; [6],99.8%
same,activity at 400 µM,[3]; [7],106%
same,Lag Phase,"[3]; complex medium, 4 µM","100,0%"
same,Lag Phase,"[3]; complex medium, 40 µM","100,0%"
same,Lag Phase,"[3]; complex medium, 400 µM","100,0%"
same,Lag Phase,"[3]; minimal medium, 4 µM","111,6%"
same,Lag Phase,"[3]; minimal medium, 40 µM","101,6%"
same,Lag Phase,"[3]; minimal medium, 400 µM","95,6%"

# Source: PMC4893628, “Chalcone-based Selective Inhibitors of a C4 Plant Key Enzyme as Novel Potential Herbicides” (Scientific Reports, 2016)
